Reference: patent US20060188904A1, “Biosensors having single reactant components immobilized over single electrodes and methods of making and using thereof” (The Regents of the University of California, priority 2003, published 2006)
“And” between values parts separate entries of the source, which are not always exact repeats. Equal values may be shown once.

Columns and labels:
single neuron [1] = details: estimated theoretically, literature; cited from earlier work
rat osteoblasts = assay: Single osteoblast sensor: response time to chemical analytes; type: cell-based; details: at the concentration printed under each value (EDTA 280 ppm, ethanol 190 ppm, peroxide 25 ppm, pyrethroids 890 ppm), preliminary results
Protocol: The experiments in Example 2 were conducted on mammalian cells, rat osteoblasts and neurons (18 day embryonic Wistar rat) having highly excitable cell membranes. […] A unique response of each cell type to each agent was determined. […] Here, two out of four agents are discussed. Additionally, the response of each cell type to a mixture of the four agents was determined in order to simulate the real time field conditions. The results obtained for neurons are discussed.
(§1) For example, for the experiments described herein, an experimental platform comprising a 5×5 electrode array on a substrate, a silicone chamber, and a measurement system was used. The micrograph of the fabricated electrode array on a substrate is shown in FIG. 1 with a 5×5 platinum electrode array pattern, electrode diameter of 80 μm and with a 200 μm center to center spacing. Two platinum plated leads (6 μm, thick) from each electrode terminated at two separate electrode pads. The dimensions of the electrode pads were 100 μm×120 μm. The electrode array on the substrate was coated with a permeation polyethylamine (PEI) and collagen with a volume of 200 μl (PEI, 1 mg/ml, Collagen 1X, Sigma, St. Louis, Mo.). The electrode array on the substrate with the aqueous coating of the permeation layer was incubated for about 12 hours prior to the experiment at 37 ° C. and 5% CO2.
The cells were separated and positioned over the electrodes by setting up a gradient AC field using an extracellular positioning system, comprising of a pulse generator and micromanipulators. The AC signal from the pulse generator was fed to the electrode pads of the selected electrodes using the micromanipulators. The extracellular recordings from the cells were amplified and recorded on an oscilloscope. […]
Then fast Fourier transformation (FFT) and wavelet transformation (WT) analysis were used to extract important information from the extracellular action potential (AP) for the neurons. […] Quantitative dose response curves and response times were also obtained for the single cell systems.

single neuron [2] = assay: Single neuron sensor: extracellular electrical response to chemical analytes (FFT/WT analysis, signature pattern vector); details: for Percentage reduction of signal amplitudes from the detection limit to the peak concentration: 5000 ppm to detection limit; for Percentage increase in response time from peak concentration to the sensitivity limits: about 5000 ppm to detection limit; for Response time of a single neuron extracted via WT analysis: at the detection limit; for Detection limit for a single neuron: decrementing concentrations from about 5000 ppm; for Experimentally obtained detection limit (molar): single neuron
Protocol: The experiments in Example 2 were conducted on mammalian cells, rat osteoblasts and neurons (18 day embryonic Wistar rat) having highly excitable cell membranes. […] A unique response of each cell type to each agent was determined. […] Additionally, the response of each cell type to a mixture of the four agents was determined in order to simulate the real time field conditions.
as §1
The cells were separated and positioned over the electrodes by setting up a gradient AC field using an extracellular positioning system, comprising of a pulse generator and micromanipulators. The AC signal from the pulse generator was fed to the electrode pads of the selected electrodes using the micromanipulators. The extracellular recordings from the cells were amplified and recorded on an oscilloscope. The supply and measurement systems are integrated using general-purpose interface bus (GPIB) control and controlled through LabVIEW (National Instruments, Austin, Tex.).
Then fast Fourier transformation (FFT) and wavelet transformation (WT) analysis were used to extract important information from the extracellular action potential (AP) for the neurons. Specific spectrum power vectors (SSPVs) and the relative spectrum power values (RSPVS) were found for osteoblast. Quantitative dose response curves and response times were also obtained for the single cell systems.
Extracellular signals from individual neurons due to the action of a specific chemical analyte may be analyzed further to understand the chemical type and the cellular response relationship. Here, single neuron based sensor's response and its sensitivity is determined by statistical reconstruction and enhancement of the acquired experimental data. Each chemical was characterized by a unique SPV obtained from the integrated processing of the modified extracellular action potential in the frequency domain (FFT) as well as the time domain (WT).
Integrated signal processing yielded an SPV specific to every chemical analyte. The SPV provides unique functional data corresponding to the physiological state of a single neuron due to the action of a particular analyte at a specific concentration. Each SPV comprises of certain frequency states, which are analyte specific and having maximum relative amplitudes that are generated concurrently in the sensing cycle; these correspond to the neuron's modified stable burst rate. Extracellular signal amplitudes greater than about 50 μV are considered to be accurate measures of the cell response due to a specific chemical analyte as the magnitude of signals due to non-specific interactions and noise signals are smaller than this value.

single neuron [3] = details: hydrogen peroxide added after ethanol, both at their detection limits
Description: The detection limits for individual chemicals act as the basis for determining the concentration of the specific chemical analytes used in cascaded sensing. Addition of the first chemical analyte approaching its sensitivity limit results in the acquisition of modified extracellular potential pertaining to the specific chemical analyte. The use of the chemical analyte close to its detection limit leads to the dissipation as well as metabolization of the chemical analyte within a single sensing cycle (180 seconds) that result in the reduction of the chemical analyte concentration below the detection threshold. […] Administration of the second chemical analyte results in a specific modification based on the latter.
The concentrations of the chemicals used were at their detection limits.

| Compound | Lowest single neuron sensitivity, lowest concentration determined by existing methods (single neuron [1]) | Response time of osteoblast cells (rat osteoblasts) | Percentage reduction of signal amplitudes from the detection limit to the peak concentration (single neuron [2]; n=15) | Percentage increase in response time from peak concentration to the sensitivity limits (single neuron [2]; n=15) | Response time of a single neuron extracted via WT analysis (single neuron [2]; n=15) | Detection limit for a single neuron (single neuron [2]; n=15) | Percentage reduction of signal amplitude per 1000 ppm (single neuron [2]; n=15) | Experimentally obtained detection limit (molar) (single neuron [2]) | High frequency eigen vector after cascaded addition (single neuron [3]) | Eigen vectors of the SPV / modified firing frequency (Example 2) (single neuron [2]; control burst rate 626 Hz, unchanged for varying concentrations, n=15) | Frequency of firing of the neuron / eigen values of the SPV (description of FIGS. 4-7) (single neuron [2]; low and high frequency modes, hydrogen peroxide within 30 seconds of addition) |
| --- | --- | --- | --- | --- | --- | --- | --- | --- | --- | --- | --- |
| OO [hydrogen peroxide] | about 15 nM | 0.42 sec per | about 38% | about 1.8% | about 0.07 second | about 19 ppm | about 7.8%±0.14% | about 2.94×10^−12 M | 775 Hz | – | – |
| O=C(O)CN(CCN(CC(=O)O)CC(=O)O)CC(=O)O [EDTA, ethylenediaminetetraacetic acid] | about 15 pM | 0.14 sec per | about 67% | about 1.8% | about 0.27 second | about 180 ppm | about 10.4%±0.11% | about 3.42×10^−13 M | – | – | – |
| CCO [ethanol] | about 25 μM | 0.71 sec per | about 52% | about 1.6% | about 0.21 second | about 9 ppm | about 8.2%±0.12% | about 2.17×10^−12 M | – | 314 Hz | 315 Hz and 627 Hz and 314 Hz and 626 Hz |
